According to ChEMBL document CHEMBL3784965, “Discovery of (R)-6-(1-(8-Fluoro-6-(1-methyl-1H-pyrazol-4-yl)-[1,2,4]triazolo[4,3-a]pyridin-3-yl)ethyl)-3-(2-methoxyethoxy)-1,6-naphthyridin-5(6H)-one (AMG 337), a Potent and Selective Inhibitor of MET with High Unbound Target Coverage and Robust In Vivo Antitumor Activity” (J Med Chem, 2016):

What was measured:
Mus musculus [1] = experiment: In vivo inhibition of HGF-induced phosphorylation of MET in Balb/c mouse liver assessed as phosphorylated cMET level at 10 mg/kg administered via oral gavage followed by HGF injection 24 hrs post dose by electrochemiluminescence immunoassay relative to control; assay type: functional; set-up: scale not given: the % may be the effect or the level left
Rattus norvegicus = organism: Rattus norvegicus; experiment: Unbound clearance in Sprague-Dawley rat at 5 ug/ml by equilibrium dialysis method; assay type: ADME, organism-based; settings: in vivo
[2] = Oral bioavailability in Sprague-Dawley rat at 2 mg/kg; assay type: ADME, organism-based; settings: in vivo
[3] = Half life in Sprague-Dawley rat; assay type: ADME, organism-based; settings: in vivo
[4] = Clearance in Sprague-Dawley rat at 0.25 mg/kg, iv; assay type: ADME, organism-based; settings: in vivo
[5] = Fraction unbound in Sprague-Dawley rat plasma at 5 ug/ml by equilibrium dialysis method; assay type: ADME, cell-free
[6] = Clearance in Beagle dog at 0.713 mg/kg, iv; assay type: ADME, organism-based, Canis lupus familiaris; settings: in vivo
[7] = Fraction unbound in mouse plasma at 5 ug/ml by equilibrium dialysis method; assay type: ADME, cell-free
[8] = Fraction unbound in human plasma at 5 ug/ml by equilibrium dialysis method; assay type: ADME, cell-free
[9] = Volume of distribution at steady state in Sprague-Dawley rat; assay type: ADME, organism-based; settings: in vivo, read-out: Vdss
[10] = Intrinsic clearance in rat liver microsomes; assay type: ADME; settings: read-out: CLH
[11] = Intrinsic clearance in mouse liver microsomes; assay type: ADME; settings: read-out: CLH
[12] = Intrinsic clearance in human liver microsomes; assay type: ADME; settings: read-out: CLH
Canis familiaris = organism: Canis familiaris; experiment: Unbound clearance in Beagle dog at 5 ug/ml by equilibrium dialysis method; assay type: ADME, organism-based, Canis lupus familiaris; settings: in vivo
[13] = Volume of distribution at steady state in iv dosed Beagle dog; assay type: ADME, organism-based, Canis lupus familiaris; settings: in vivo, read-out: Vdss
[14] = Half life in iv dosed Beagle dog; assay type: ADME, organism-based, Canis lupus familiaris; settings: in vivo
[15] = AUC(0 to infinity) in Beagle dog at 10 mg/kg,po; assay type: ADME, organism-based, Canis lupus familiaris; set-up: dose 10 mg/kg, route oral, time infinity; settings: in vivo
[16] = Oral bioavailability in Beagle dog at 10 mg/kg; assay type: ADME, organism-based, Canis lupus familiaris; settings: in vivo
[17] = AUC(0 to infinity) in Beagle dog at 30 mg/kg, po; assay type: ADME, organism-based, Canis lupus familiaris; set-up: dose 30 mg/kg, time infinity, route oral; settings: in vivo
[18] = (§1) Antitumor activity against mouse NIH-3T3/TPR-Met cells xenografted in CD1 mouse assessed as tumor growth inhibition administered as oral gavage, qd over 22 days; assay type: functional; settings: NIH3T3, po, 528 h
Mus musculus [19] = experiment: as §1; assay type: functional
Mus musculus [20] = experiment: Toxicity in CD1 mouse xenografted with mouse NIH-3T3/TPR-Met cells assessed as effect on body weight at 0.1 to 10 mg/kg, qd administered as oral gavage over 22 days; assay type: organism-based; settings: in vivo, 528 h
Mus musculus [21] = experiment: In vivo inhibition of HGF-induced phosphorylation of MET in Balb/c mouse liver assessed as phosphorylated cMET level at 10 mg/kg administered via oral gavage followed by HGF injection 1 hr post dose by electrochemiluminescence immunoassay relative to control; assay type: functional; set-up: scale not given: the % may be the effect or the level left
Mus musculus [22] = experiment: In vivo inhibition of HGF-induced phosphorylation of MET in Balb/c mouse liver assessed as phosphorylated cMET level at 10 mg/kg administered via oral gavage followed by HGF injection 3 hrs post dose by electrochemiluminescence immunoassay relative to control; assay type: functional; set-up: scale not given: the % may be the effect or the level left
Mus musculus [23] = experiment: In vivo inhibition of HGF-induced phosphorylation of MET in Balb/c mouse liver assessed as phosphorylated cMET level at 10 mg/kg administered via oral gavage followed by HGF injection 6 hrs post dose by electrochemiluminescence immunoassay relative to control; assay type: functional; set-up: scale not given: the % may be the effect or the level left
Mus musculus [24] = experiment: In vivo inhibition of HGF-induced phosphorylation of MET in Balb/c mouse liver assessed as phosphorylated cMET level at 10 mg/kg administered via oral gavage followed by HGF injection 9 hrs post dose by electrochemiluminescence immunoassay relative to control; assay type: functional; set-up: scale not given: the % may be the effect or the level left
Mus musculus [25] = experiment: In vivo inhibition of HGF-induced phosphorylation of MET in Balb/c mouse liver assessed as phosphorylated cMET level at 10 mg/kg administered via oral gavage followed by HGF injection 12 hrs post dose by electrochemiluminescence immunoassay relative to control; assay type: functional; set-up: scale not given: the % may be the effect or the level left
[26] = Oral bioavailability in Beagle dog at 30 mg/kg; assay type: ADME, organism-based, Canis lupus familiaris; settings: in vivo
Cytochrome P450 3A4 [27] = target: T1, Cytochrome P450 3A4 (Homo sapiens, UniProt P08684); experiment: Inhibition of CYP3A4 (unknown origin) in presence of NADPH; assay type: ADME; settings: human
T1 sequence (P08684 whole entry): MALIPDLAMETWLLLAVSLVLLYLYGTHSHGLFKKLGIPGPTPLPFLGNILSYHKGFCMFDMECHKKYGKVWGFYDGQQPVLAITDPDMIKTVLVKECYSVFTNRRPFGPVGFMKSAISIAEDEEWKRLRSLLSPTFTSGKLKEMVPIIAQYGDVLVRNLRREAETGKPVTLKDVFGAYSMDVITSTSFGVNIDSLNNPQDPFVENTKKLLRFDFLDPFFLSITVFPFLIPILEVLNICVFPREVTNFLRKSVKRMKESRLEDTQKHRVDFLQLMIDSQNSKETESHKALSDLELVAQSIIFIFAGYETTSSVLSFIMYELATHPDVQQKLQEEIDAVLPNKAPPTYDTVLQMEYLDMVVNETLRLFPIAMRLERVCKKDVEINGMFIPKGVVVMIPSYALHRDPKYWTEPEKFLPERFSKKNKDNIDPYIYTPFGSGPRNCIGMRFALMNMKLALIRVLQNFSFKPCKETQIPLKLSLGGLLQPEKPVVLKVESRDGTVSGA

Cytochrome P450 3A4 [28] = target: T1, Cytochrome P450 3A4; experiment: Inhibition of CYP3A4 (unknown origin) in absence of NADPH; assay type: ADME; settings: human
Plasma = experiment: Unbound plasma concentration in mouse at 10 mg/kg, po measured at 9 hrs; assay type: ADME, organism-based; settings: in vivo

Structure (SMILES) | Activity (Mus musculus [1]) [%] | CL free (Rattus norvegicus) [mL/min/kg] | bioavailability [2] [%] | half-life [3] [h] | clearance [4] [mL/min/kg] | fraction unbound at 5 ug/ml [5] | fraction unbound at 5 ug/ml [7] | fraction unbound at 5 ug/ml [8] | Vd [9] [L/kg] | microsomal CLint [10] [µL/min/mg] | microsomal CLint [11] [µL/min/mg] | microsomal CLint [12] [µL/min/mg] | Activity (Mus musculus [21]) [%] | Activity (Mus musculus [22]) [%] | Activity (Mus musculus [23]) [%] | Activity (Mus musculus [24]) [%] | Activity (Mus musculus [25]) [%] | further results
COCCOc1cnc2ccn([C@H](C)c3nnc4c(F)cc(-c5cnn(C)c5)cn34)c(=O)c2c1 [AMG-337] | 51 | 26.7 | 30 | 3 | 4.5 | 0.174 | 0.366 | 0.419 | 0.9 | 6 | 8 | 9 | 101 | 98 | 98 | 92 | 92 | clearance [6]: 3.83 mL/min/kg; CL free (Canis familiaris): 7.67 mL/min/kg; Vd [13]: 1.1 L/kg; half-life [14]: 5.9 h; AUC(0-inf) [15]: 21000 ng·h/mL; bioavailability [16]: 49%; AUC(0-inf) [17]: 82600 ng·h/mL; ED50 [18]: 0.3 mg/kg; ED90 [18]: 0.8 mg/kg; Activity (Mus musculus [19]): Dose-dependent effect; Activity (Mus musculus [20]): Non-toxic; bioavailability [26]: 64%
Cc1cc(-c2cc(F)c3nnc([C@@H](C)n4ccc5ncccc5c4=O)n3c2)on1 | 12 | 31.7 | 44 | 0.8 | 6.33 | 0.196 | 0.245 | 0.32 | 0.4 | 8 | < 5 | 14 | 100 | 101 | 98 | 91 | 40 | TDI (Cytochrome P450 3A4 [27]): Not Active; TDI (Cytochrome P450 3A4 [28]): Not Active; Cp(f) (Plasma): 193 nM
